From US20260041744A1, “Methods for Treating Pompe Disease” (Amicus Therapeutics, Inc., priority 2022, published 2026)
Values belong to the compound of their own block, whether it stands above or below them.

Key:
adult subjects with LOPD [1] = assay: Study ATB200-07 (OLE): sitting % predicted FVC; type: in vivo, human
From the text: (§1) The study doses and schedule are maintained from Study ATB200-03.
(§2) Efficacy data are presented in this summary as change from the baseline of Study ATB200-03 (OLE-ES Population).

[2] = in vivo
adult subjects with LOPD [3] = assay: Study ATB200-07 (OLE): CK
adult subjects with LOPD [4] = assay: Study ATB200-07 (OLE): Hex4
adult subjects with LOPD [5] = assay: Study ATB200-07 (OLE of PROPEL): 6MWD and % predicted 6MWD; type: in vivo, human
From the text: as §1, §2

Gaa KO mice = assay: Single fiber analysis (LAMP1/LC3 co-immunofluorescence, white gastrocnemius); type: in vivo, mouse; conditions: mouse, in vivo
From the text: FIG. 17 depicts co-immunofluorescent staining of LAMP1 (green) (see for example, “B”) and LC3 (red) (see, for example, “A”) in single fibers isolated from the white gastrocnemius of Gaa KO mice treated with a vehicle, alglucosidase alfa, or ATB200. “C” depicts clearance of autophagic debris and absence of enlarged lysosome. A minimum of 30 fibers were examined from each animal.
As a result, a significant portion of muscle fibers analyzed (36-60%) from ATB200-treated mice appeared normal or near-normal.

CIMPR = CIMPR (Homo sapiens, UniProt P11717); assay: CIMPR affinity chromatography of rhGAA (bound vs flow-through by GAA activity); type: binding; conditions: CIMPR affinity column
Sequence of CIMPR (P11717 41-2491, species assumed): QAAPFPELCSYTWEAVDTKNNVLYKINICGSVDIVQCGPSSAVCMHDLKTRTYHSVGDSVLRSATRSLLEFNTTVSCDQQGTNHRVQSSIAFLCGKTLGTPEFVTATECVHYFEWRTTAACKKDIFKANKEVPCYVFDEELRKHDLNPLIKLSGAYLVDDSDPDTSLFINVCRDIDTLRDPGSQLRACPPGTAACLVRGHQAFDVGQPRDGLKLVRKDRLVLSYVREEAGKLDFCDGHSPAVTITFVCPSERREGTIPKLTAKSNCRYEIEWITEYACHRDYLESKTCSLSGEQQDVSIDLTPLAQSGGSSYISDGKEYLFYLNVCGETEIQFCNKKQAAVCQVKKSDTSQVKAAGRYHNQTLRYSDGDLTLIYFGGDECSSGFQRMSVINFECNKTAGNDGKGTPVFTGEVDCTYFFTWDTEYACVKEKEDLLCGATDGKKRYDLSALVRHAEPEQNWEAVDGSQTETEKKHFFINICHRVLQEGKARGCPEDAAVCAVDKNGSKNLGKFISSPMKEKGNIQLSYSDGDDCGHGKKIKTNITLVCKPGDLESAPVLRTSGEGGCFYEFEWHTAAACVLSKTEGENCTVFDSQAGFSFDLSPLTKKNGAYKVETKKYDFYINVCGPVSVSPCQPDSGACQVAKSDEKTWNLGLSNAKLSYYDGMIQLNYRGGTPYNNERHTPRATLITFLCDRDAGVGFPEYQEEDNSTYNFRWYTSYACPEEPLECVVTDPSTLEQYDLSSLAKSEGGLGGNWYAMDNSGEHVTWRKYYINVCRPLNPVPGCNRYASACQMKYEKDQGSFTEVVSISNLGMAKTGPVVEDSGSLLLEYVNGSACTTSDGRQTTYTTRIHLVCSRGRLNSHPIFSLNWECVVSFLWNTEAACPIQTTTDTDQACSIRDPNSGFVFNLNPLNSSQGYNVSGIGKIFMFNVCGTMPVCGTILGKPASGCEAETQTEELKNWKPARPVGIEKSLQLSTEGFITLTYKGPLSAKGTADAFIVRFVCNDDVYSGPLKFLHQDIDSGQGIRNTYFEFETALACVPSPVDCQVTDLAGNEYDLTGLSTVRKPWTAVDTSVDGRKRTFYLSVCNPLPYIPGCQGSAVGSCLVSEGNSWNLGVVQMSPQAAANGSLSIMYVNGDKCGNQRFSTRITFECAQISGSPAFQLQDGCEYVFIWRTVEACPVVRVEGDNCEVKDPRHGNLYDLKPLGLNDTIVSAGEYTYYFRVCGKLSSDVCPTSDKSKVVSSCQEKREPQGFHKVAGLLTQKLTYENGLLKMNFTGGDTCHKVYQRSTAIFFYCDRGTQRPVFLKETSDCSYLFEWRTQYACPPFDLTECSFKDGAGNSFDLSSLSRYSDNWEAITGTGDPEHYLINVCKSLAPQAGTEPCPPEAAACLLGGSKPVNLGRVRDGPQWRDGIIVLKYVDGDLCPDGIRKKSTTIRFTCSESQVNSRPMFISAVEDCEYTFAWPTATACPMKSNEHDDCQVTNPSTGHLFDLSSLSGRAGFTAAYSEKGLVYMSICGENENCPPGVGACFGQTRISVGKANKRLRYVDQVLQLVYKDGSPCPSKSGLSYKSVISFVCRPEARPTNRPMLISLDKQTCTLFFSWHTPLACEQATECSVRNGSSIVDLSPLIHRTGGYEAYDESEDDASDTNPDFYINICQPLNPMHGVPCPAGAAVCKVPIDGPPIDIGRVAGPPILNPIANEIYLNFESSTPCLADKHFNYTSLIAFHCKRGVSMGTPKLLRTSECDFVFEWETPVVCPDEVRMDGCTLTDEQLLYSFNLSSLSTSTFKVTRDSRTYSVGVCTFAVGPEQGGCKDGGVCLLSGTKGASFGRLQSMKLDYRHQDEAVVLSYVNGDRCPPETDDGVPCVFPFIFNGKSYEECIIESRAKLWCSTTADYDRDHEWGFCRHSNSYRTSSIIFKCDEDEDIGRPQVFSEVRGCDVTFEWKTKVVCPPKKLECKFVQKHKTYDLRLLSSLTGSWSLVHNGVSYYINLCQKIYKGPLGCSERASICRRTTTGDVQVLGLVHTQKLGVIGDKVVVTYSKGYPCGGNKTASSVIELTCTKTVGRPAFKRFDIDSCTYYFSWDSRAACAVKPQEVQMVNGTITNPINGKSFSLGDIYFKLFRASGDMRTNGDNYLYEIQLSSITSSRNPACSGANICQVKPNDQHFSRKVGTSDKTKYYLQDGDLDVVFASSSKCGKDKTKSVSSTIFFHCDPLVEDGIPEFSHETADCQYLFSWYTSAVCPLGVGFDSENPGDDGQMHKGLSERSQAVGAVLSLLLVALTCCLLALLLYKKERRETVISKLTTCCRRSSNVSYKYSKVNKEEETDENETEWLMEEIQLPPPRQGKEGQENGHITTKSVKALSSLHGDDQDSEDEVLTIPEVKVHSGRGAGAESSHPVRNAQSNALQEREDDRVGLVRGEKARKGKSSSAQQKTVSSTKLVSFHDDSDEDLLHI
From the text: Multiple batches of the rhGAA according to the disclosure were produced in shake flasks and in perfusion bioreactors using CHO cell line GA-ATB200, the product of which is referred to as “ATB200.” Weak anion exchange (“WAX”) liquid chromatography was used to fractionate ATB200 rhGAA according to terminal phosphate and sialic acid. Elution profiles were generated by eluting the ERT with increasing amount of salt. The profiles were monitored by UV (A280 nm).
To evaluate the ability of the conventional rhGAAs in MYOZYME® and LUMIZYME® to interact with the CIMPR, the two conventional rhGAA preparations were injected onto a CIMPR affinity column (which binds rhGAA having M6P groups) and the flow through collected. The bound material was eluted with a free M6 gradient. Fractions were collected in 96-well plate and GAA activity assayed by 4MU-α-glucosidase substrate. The relative amounts of unbound (flow through) and bound (M6P eluted) rhGAA were determined based on GAA activity and reported as the fraction of total enzyme. […] Indeed, only 27% of the rhGAA in MYOZYME® and 22% of the rhGAA in LUMIZYME® contained M6P that can be productive to target it to the CIMPR on muscle cells.

rats = assay: Sperm characteristics and fertility in rats; type: in vivo, rat
healthy adult men = assay: Sperm parameters in healthy adult men; type: in vivo, human; conditions: 100 mg orally twice daily for 6 weeks
ATB200 = ATB200 (Homo sapiens, UniProt P10253); assay: Thermostability assay using SYPRO Orange; conditions: pH 7.4
[6] = Miglustat plasma pharmacokinetics in patients, incl. renal impairment; type: in vivo, human
Method: At the recommended 260 mg dose, the mean Cmax was approximately 3 mcg/mL and the mean AUC was approximately 25 mcg*hr/mL. The mean time to reach the maximum concentration ranged from 2 hours to 3 hours.
Plasma concentrations of miglustat increased in patients with renal impairment. Accordingly, the apparent clearance of miglustat decreased with decreasing renal function. […] In some embodiments, the dosage of miglustat in patients with moderate or severe renal impairment is reduced as compared to patients with normal renal function.

Pompe disease patients = conditions: ERT-experienced patients; cited from earlier work
[7] = tested on: LOPD population (PROPEL target population); assay: Multi-level network meta-regression (ML-NMR) indirect treatment comparison, 6MWD and FVC change from baseline at week 52; design: species or system human; conditions: base-case scenario
Method: Using patient-level data from the PROPEL randomized clinical trial (RCT) plus aggregate published data from other RCTs, Phase I/II and open label extension trials, a multi-level network meta-regression was conducted, adjusting for various baseline covariates including previous ERT duration. The base case scenario had covariates resembling the PROPEL population (naïve and ERT-experienced) and analyzed 6MWD and FVC change from baseline at 52 weeks.
An ITC providing relative effect estimates in the target population of interest (ie an LOPD population including a mix of ERT-naïve and ERT-experienced subjects as in the pivotal Phase III trial comparing Cipa+mig with Alglu [PROPEL]) was performed.
A systematic literature review (SLR) was conducted to identify relevant published clinical studies of ERTs in LOPD. Outcomes assessed were change from baseline in 6-minute walking distance (6MWD) (m) and in forced vital capacity (FVC; % predicted) at week 52, acknowledged by clinicians, HTA agencies and payers as key LOPD trial endpoints. Aggregate results on 6MWD and FVC change from baseline over time and baseline characteristics (age, gender, ethnicity, previous ERT duration, baseline 6MWD and baseline FVC) were extracted from included studies.
A multi-level network meta regression (ML-NMR) was performed, which is an extension of standard network meta-analyses (NMAs) that take into account the effect of study-level covariates, and that can be applied to any connected network with any mixture of individual patient-level data (IPD) and aggregate data. ML-NMR is an accepted method by the National Institute for Health and Care Excellence (NICE) in support of cost effectiveness analysis. Single-arm study results were matched to appropriate comparator arms of the comparative studies to allow for inclusion into the network. Mean treatment differences with associated 95% credible intervals (CrIs) were calculated for 6MWD and FVC change from baseline at week 52.
A base-case scenario was evaluated in which all covariates were set to the target population of the PROPEL trial. To study the impact of previous ERT duration on relative effects, ERT duration value was varied, keeping remaining covariate values as in the base-case scenario. A sensitivity analysis was performed by excluding all matched single-arm evidence from the network to assess its impact on the results.
Both fixed effects (FE) and random effects (RE) ML-NMR models were applied and the deviance information criteria (DIC) was used to assess goodness-of-fit of the models and to identify the appropriate model (FE or RE model) for the data. Models were implemented in a Bayesian framework using Stan with help of the R package multinma.
In the base-case scenario, the covariates were set to the baseline characteristics of the target population (ie the PROPEL trial; see Table 20), and time was set to 52 weeks.

[8] = human, plasma, oral, 260 mg dose

Compound: cipa/mig-cipa/mig: treatment sequence: cipa/mig in PROPEL, continued cipa/mig in the open-label extension
mean change in % predicted FVC from PROPEL baseline to week 104 (adult subjects with LOPD [1]; ERT-experienced patients): −0.6 (7.50)
mean change in % predicted FVC from PROPEL baseline to week 104 (adult subjects with LOPD [1]; ERT-naïve patients): −4.8 (6.48)
patients with treatment-emergent adverse events [2]: 98.8%
mean reduction in CK from PROPEL baseline to week 104 (adult subjects with LOPD [3]; ERT-experienced patients): -132.1 (215.74) U/L
mean reduction in CK from PROPEL baseline to week 104 (adult subjects with LOPD [3]; ERT-naïve patients): −216.9 (243.66) U/L
mean reduction in Hex4 from PROPEL baseline to week 104 (adult subjects with LOPD [4]; ERT-experienced patients): -1.9 (3.22) mmol/mol
mean reduction in Hex4 from PROPEL baseline to week 104 (adult subjects with LOPD [4]; ERT-naïve patients): −2.9 (2.45) mmol/mol
mean change in % predicted 6MWD from PROPEL baseline to week 104 (adult subjects with LOPD [5]; ERT-experienced patients): +3.1
mean change in % predicted 6MWD from PROPEL baseline to week 104 (adult subjects with LOPD [5]; ERT-naïve patients): +8.6 (8.57)

rhGAA bound to the CIMPR (fraction of total enzyme) (CIMPR; M6P eluted): 27%
rhGAA that did not bind to the CIMPR (fraction of total enzyme) (CIMPR; flow through): 73%
Compound: MYOZYME®: alglucosidase alfa product marketed by Sanofi Genzyme; conventional rhGAA product
single fiber appearance vs vehicle-treated mice (Gaa KO mice): did not show any significant difference as compared to vehicle-treated mice

increase of melting temperature (Tm) of ATB200 by addition of miglustat (ATB200): ~10 °C
dose proportionality ([6]; 130 mg to 260 mg): linear pharmacokinetics
AUC [6, 8]: ~25000 ng·h/mL
Cmax [6, 8]: ~3000 ng/mL
increase of AUC0-24 hr vs normal renal function ([6]; mild renal impairment (CLcr 60-89 mL/minute)): 21%
increase of AUC0-24 hr vs normal renal function ([6]; moderate renal impairment (CLcr 30-59 mL/minute)): 26%
increase of AUC0-24 hr vs normal renal function ([6]; severe renal impairment (CLcr 15-29 mL/minute)): 31%
Compound: CCCCN1C[C@H](O)[C@@H](O)[C@H](O)[C@H]1CO [miglustat, (2R,3R,4R,5S)-1-butyl-2-(hydroxymethyl)piperidine-3,4,5-triol]
effect on sperm characteristics and fertility (rats): negatively affects sperm characteristics (motility and morphology), thereby reducing fertility
effect on sperm concentration, motility, morphology (healthy adult men): No effect on sperm concentration, motility, or morphology
stabilization of ATB200 (ATB200): stabilized ATB200 at pH 7.4 in a concentration-dependent manner

Compound: avalglucosidase alfa: recombinant human acid α-glucosidase, avalglucosidase alfa-ngpt; CAS 1802558-87-7
long-term motor function by 6MWD after switching from alglucosidase alfa (Pompe disease patients): continue to experience progressive loss of motor function as assessed by 6MWD
long-term pulmonary function by FVC after switching from alglucosidase alfa (Pompe disease patients): progressive loss of pulmonary function as assessed by FVC
relative effect, sensitivity analysis (RCT data only), 6MWT and FVC [7]: numerically favourable versus Alglu and placebo (6MWT and FVC)
